{
  "source": "patent US11607422B2",
  "about": "“Uttroside B and derivatives thereof as therapeutics for hepatocellular carcinoma” (Rajiv Gandhi Centre for Biotechnology, an Autonomous …, priority 2016, dated 2023)",
  "key": {"A375": {"test_system": "A375", "test": "MTT cell viability assay in A375 cells", "type": "cell-based", "conditions": "72 h", "procedure": "(§1) FIG. 2A is a graph comparison of IC50 of Uttroside B in a panel of cancer cells of different origin. The cancer cell lines HeLa, A375, HepG2, MDA-MB-231, HL 60, A549 and HCT116 were treated with Uttroside B as indicated, incubated for 72 h and the cell viability was assessed by MTT assay. FIG. 2B is a graph showing dose dependent effect of Uttroside B in the liver cancer cell lines and in normal immortalized hepatocytes. The liver cancer cell lines HepG2, Hep3B, SKHEP-1, Huh-7 and normal hepatocytes (Chang liver), were treated with Uttroside B incubated for 72 h and the cell viability was assessed by MTT assay. FIG. 2C is a graph comparison of IC50 of Uttroside B with sorafenib. HepG2 cells were treated with Uttroside B as indicated, incubated for 72 h, and the cell viability was assessed by MTT assay. […] The clones developed were counted and plotted as a graph. Colony containing more than four cells was counted as one clone. […]\n(§2) MTT [3-(4,5-dimethylthiazole-2-yl)-2,5-diphenyltetrazolium bromide] assay is a standard colorimetric assay, suitable for analyzing proliferation, viability, and cytotoxicity. […] After overnight incubation, cells were treated with different concentrations of organic extracts (25-250 μg/ml) of S. nigrum and the isolated compound Uttroside B (250-1250 nM) for 72 h and cytotoxicity was measured. […]"}, "MDA-MB-231": {"test_system": "MDA-MB-231", "test": "MTT cell viability assay in MDA-MB-231 cells", "type": "cell-based", "conditions": "72 h", "procedure": "as §1, §2"}, "HepG2 cells": {"test_system": "HepG2 cells", "test": "Clonogenic assay in HepG2 cells", "type": "cell-based, human", "conditions": "72 h treatment, then 1 week", "procedure": "FIG. 2A is a graph comparison of IC50 of Uttroside B in a panel of cancer cells of different origin. The cancer cell lines HeLa, A375, HepG2, MDA-MB-231, HL 60, A549 and HCT116 were treated with Uttroside B as indicated, incubated for 72 h and the cell viability was assessed by MTT assay. FIG. 2B is a graph showing dose dependent effect of Uttroside B in the liver cancer cell lines and in normal immortalized hepatocytes. The liver cancer cell lines HepG2, Hep3B, SKHEP-1, Huh-7 and normal hepatocytes (Chang liver), were treated with Uttroside B incubated for 72 h and the cell viability was assessed by MTT assay. FIG. 2C is a graph comparison of IC50 of Uttroside B with sorafenib. HepG2 cells were treated with Uttroside B as indicated, incubated for 72 h, and the cell viability was assessed by MTT assay. FIG. 2D is an image of the morphological changes induced by Uttroside B in HepG2 cells. HepG2 cells were treated with Uttroside B as indicated and incubated for 72 h. FIG. 2E is an image showing Uttroside B inhibits the clonogenic potential of HepG2 cells. HepG2 cells were treated with different concentrations of Uttroside B for 72 h and the clonogenic assay was performed. […] The clones developed were counted and plotted as a graph. Colony containing more than four cells was counted as one clone. […]"}, "AP-1 in HepG2 cells": {"test_system": "AP-1 in HepG2 cells", "test": "Electrophoretic mobility shift assay of AP-1", "type": "cell-based, human", "conditions": "HepG2, EMSA", "procedure": "Stocks of crude extracts and isolated compound of S. nigrum was prepared in DMSO for the in vitro studies and stored at −20° C. The DMSO concentration in all studies, including controls, was ≤0.2%. Cell viability assay was performed after 72 h of drug treatment while whole cell lysate preparation and cell cycle analysis were done after 24 h and 48 h of drug treatment. For studying NF-κB and AP-1, Uttroside B was incubated for 2 h before extraction.\nRadiolabeling of oligonucleotide probes for electrophoretic mobility shift assay:HepG2 Cells were treated with Uttroside B for two hours, scraped and suspended in 150 μL of lysis buffer (10 mM HEPES(pH 7.9), 10 mM KCl, 0.1 mM EDTA, 0.1 mM EGTA, 1 mM DTT, 0.5 mMphenylmethylsulfonyl fluoride, 2 μg/mL leupeptin, 2 μg/mL aprotinin, 0.5 mg/ml benzamidine) for 30 min, after which 4.5 μl of 10% Nonidet P-40 was added. […]"}},
  "data": [
    {"compound": "C[C@H](CC[C@@]1(O)O[C@H]2C[C@H]3[C@@H]4CC[C@H]5C[C@@H](O[C@@H]6O[C@H](CO)[C@H](O[C@@H]7O[C@H](CO)[C@@H](O)[C@H](O[C@@H]8OC[C@@H](O)[C@H](O)[C@H]8O)[C@H]7O[C@@H]7O[C@H](CO)[C@@H](O)[C@H](O)[C@H]7O)[C@H](O)[C@H]6O)CC[C@]5(C)[C@H]4CC[C@]3(C)[C@H]2[C@@H]1C)CO[C@@H]1O[C@H](CO)[C@@H](O)[C@H](O)[C@H]1O", "note": "[Uttroside B]", "values": [
      {"measurement": "IC50", "setting": "A375", "result": 1600, "unit": "nM"},
      {"measurement": "IC50", "setting": "MDA-MB-231", "result": 1600, "unit": "nM"},
      {"measurement": "anti-clonogenic potential (colonies formed)", "setting": "HepG2 cells", "result": "drastic dose dependent reduction in both number and size of the colonies formed"},
      {"measurement": "AP-1 (downstream target of MAPK signaling)", "setting": "AP-1 in HepG2 cells", "result": "down-regulated"}
    ]}
  ]
}
